Test results reported in ChEMBL document CHEMBL3414515, “Design of a potent antibiotic peptide based on the active region of human defensin 5” (J Med Chem, 2015).
Converted amounts (≈) assume the structure as drawn. The source made the active and inactive calls. The calls are words filed in the database; no cut-off is given here. Positions of bridges follow the written chain, without caps; N, C: chain ends. Residues, ends and D or L forms follow the SMILES beside them.

Assays:
Escherichia coli [1] = experiment: Antibacterial activity against Escherichia coli ATCC 25922 assessed as reduction in bacterial survival rate; type: functional; conditions: for LC50: Escherichia coli, ATCC 25922, read-out: LD50 (the source's name)
Staphylococcus aureus [2] = experiment: Antibacterial activity against Staphylococcus aureus ATCC 25923 assessed as reduction in bacterial survival rate; type: functional; conditions: for LC50: Staphylococcus aureus, ATCC 25923, read-out: LD50 (the source's name)
[3] = Binding affinity to Rd mutant containing Escherichia coli F583 lipid A assessed as equilibrium dissociation constant in presence of 75 mM NaCl by bilayer interferometry
Escherichia coli [4] = experiment: Antibacterial activity against Escherichia coli ATCC 25922 assessed as reduction in bacterial survival rate 12.5 ug/ml in presence of 150 mM NaCl; type: functional, organism-based
Escherichia coli [5] = experiment: Antibacterial activity against Escherichia coli ATCC 25922 assessed as reduction in bacterial survival rate at 25 ug/ml in presence of 10% mouse serum; type: functional, organism-based
Staphylococcus aureus [6] = experiment: Antibacterial activity against Staphylococcus aureus ATCC 25923 assessed as reduction in bacterial survival rate at 25 ug/ml in presence of 10% mouse serum; type: functional, organism-based
[7] = Induction of hemolysis in mouse erythrocytes up to 100 ug/ml incubated at 37 degC for 15 mins; type: cell-based, Erythrocyte; conditions: read-out: Activity
[8] = Stability in presence of 400 U/L trypsin assessed as compound degradation at 100 ug/ml after 4 to 12 hrs by HPLC and LC-MS method; type: physicochemical; conditions: isolated protein
[9] = Binding affinity to Staphylococcus aureus lipoteichoic acid assessed as equilibrium dissociation constant by bilayer interferometry
Escherichia coli [10] = experiment: Induction of outer membrane disintegration in Escherichia coli ATCC 25922 at 6.25 ug/ml by NPN uptake assay; type: functional, organism-based
Escherichia coli [11] = experiment: Induction of inner membrane disintegration in Escherichia coli ML35 ATCC 43827 at 1.6 to 6.3 ug/ml by ONPG hydrolysis assay; type: functional, organism-based
Escherichia coli [12] = experiment: Antibacterial activity against Escherichia coli ATCC 25922 assessed as reduction in bacterial survival rate at 12.5 ug/ml in presence of >75 mM NaCl; type: functional, organism-based
[13] = Binding affinity to Rd mutant containing Escherichia coli F583 lipid A assessed as equilibrium dissociation constant by bilayer interferometry
Escherichia coli [14] = experiment: Induction of inner membrane disintegration in Escherichia coli ML35 ATCC 43827 at 0.78 to 1.6 ug/ml by ONPG hydrolysis assay; type: functional, organism-based
[15] = Induction of hemolysis in mouse erythrocytes at 12.5 and 25 ug/ml incubated at 37 degC for 15 mins; type: cell-based; conditions: erythrocyte, 0.25 h

Compound | LD90 (Escherichia coli [1]) [µg/mL] | LC50 (Escherichia coli [1]) [µg/mL] | LD90 (Staphylococcus aureus [2]) [µg/mL] | LC50 (Staphylococcus aureus [2]) [µg/mL] | Kd [3] [nM] | Activity (Escherichia coli [4]) | Activity (Escherichia coli [5]) | Activity (Staphylococcus aureus [6]) | hemolysis at 0.25 h [7] [%] | Stability [8] | Kd [9] [nM] | Activity (Escherichia coli [10]) | Activity (Escherichia coli [11]) | Activity (Escherichia coli [12]) | Kd [13] [nM] | Activity (Escherichia coli [14]) | Activity [15]
CC[C@H](C)[C@@H]1NC(=O)[C@H](CCC(=O)O)NC(=O)[C@@H]2CSSC[C@@H]3NC(=O)[C@H](Cc4ccc(O)cc4)NC(=O)[C@@H](NC(=O)[C@@H](NC(=O)[C@H](C)N)[C@@H](C)O)CSSC[C@@H](C(=O)N[C@@H](CCCNC(=N)N)C(=O)O)NC(=O)[C@H](CSSC[C@H](NC(=O)[C@H](CCCNC(=N)N)NC(=O)CNC(=O)[C@H](CCCNC(=N)N)NC(=O)[C@H](CCCNC(=N)N)NC3=O)C(=O)N[C@@H](C)C(=O)N[C@@H]([C@@H](C)O)C(=O)N[C@@H](CCCNC(=N)N)C(=O)N[C@@H](CCC(=O)O)C(=O)N[C@@H](CO)C(=O)N[C@@H](CC(C)C)C(=O)N[C@@H](CO)C(=O)NCC(=O)N[C@@H](C(C)C)C(=O)N2)NC(=O)[C@H](CC(C)C)NC(=O)[C@H](CCCNC(=N)N)NC(=O)[C@H](Cc2ccc(O)cc2)NC(=O)[C@H](CC(C)C)NC(=O)[C@H](CCCNC(=N)N)NC(=O)CNC(=O)[C@H](CO)NC1=O (H-ATCYCRRGRCATRESLSGVCEISGRLYRLCCR-OH; disulfide 3-31, 5-20, 10-30) | 5 | 1.4 (≈ 0.385 µM) | 2.8 | 1.3 (≈ 0.357 µM) |  |  |  |  |  |  |  |  |  |  |  |  | 
CC[C@H](C)[C@@H]1NC(=O)[C@H](CCCNC(=N)N)NC(=O)[C@@H]2CSSC[C@@H]3NC(=O)[C@H](Cc4ccc(O)cc4)NC(=O)[C@@H](NC(=O)[C@@H](NC(=O)[C@H](C)N)[C@@H](C)O)CSSC[C@@H](C(=O)N[C@@H](CCCNC(=N)N)C(=O)O)NC(=O)[C@H](CSSC[C@H](NC(=O)[C@H](CCCNC(=N)N)NC(=O)CNC(=O)[C@H](CCCNC(=N)N)NC(=O)[C@H](CCCNC(=N)N)NC3=O)C(=O)N[C@@H](C)C(=O)N[C@@H]([C@@H](C)O)C(=O)N[C@@H](CCCNC(=N)N)C(=O)N[C@@H](CCC(=O)O)C(=O)N[C@@H](CO)C(=O)N[C@@H](CC(C)C)C(=O)N[C@@H](CO)C(=O)NCC(=O)N[C@@H](C(C)C)C(=O)N2)NC(=O)[C@H](CC(C)C)NC(=O)[C@H](CCCNC(=N)N)NC(=O)[C@H](Cc2ccc(O)cc2)NC(=O)[C@H](CC(C)C)NC(=O)[C@H](CCCNC(=N)N)NC(=O)CNC(=O)[C@H](CO)NC1=O (H-ATCYCRRGRCATRESLSGVCRISGRLYRLCCR-OH; disulfide 3-31, 5-20, 10-30) | 1.8 | 0.8 (≈ 0.218 µM) | 1.4 | < 0.39 | 48 | Active | Active | Active | ≤ 1 | Stable |  |  |  |  |  |  | 
CC[C@H](C)[C@@H]1NC(=O)[C@H](CCC(=O)O)NC(=O)[C@@H]2CSSC[C@@H]3NC(=O)[C@H](Cc4ccc(O)cc4)NC(=O)[C@@H](NC(=O)[C@@H](NC(=O)[C@H](C)N)[C@@H](C)O)CSSC[C@@H](C(=O)N[C@@H](CCCNC(=N)N)C(=O)O)NC(=O)[C@H](CSSC[C@H](NC(=O)[C@H](CCCNC(=N)N)NC(=O)CNC(=O)[C@H]([C@@H](C)O)NC(=O)[C@H](CCCNC(=N)N)NC3=O)C(=O)N[C@@H](C)C(=O)N[C@@H]([C@@H](C)O)C(=O)N[C@@H](CCCNC(=N)N)C(=O)N[C@@H](CCC(=O)O)C(=O)N[C@@H](CO)C(=O)N[C@@H](CC(C)C)C(=O)N[C@@H](CO)C(=O)NCC(=O)N[C@@H](C(C)C)C(=O)N2)NC(=O)[C@H](CC(C)C)NC(=O)[C@H](CCCNC(=N)N)NC(=O)[C@H](Cc2ccc(O)cc2)NC(=O)[C@H](CC(C)C)NC(=O)[C@H](CCCNC(=N)N)NC(=O)CNC(=O)[C@H](CCCNC(=N)N)NC1=O (H-ATCYCRTGRCATRESLSGVCEIRGRLYRLCCR-OH; disulfide 3-31, 5-20, 10-30) | 6 | 1.7 (≈ 0.466 µM) | 3 | 1.5 (≈ 0.411 µM) |  |  |  |  |  |  |  |  |  |  |  |  | 
CC[C@H](C)[C@@H]1NC(=O)[C@H](CCC(=O)O)NC(=O)[C@@H]2CSSC[C@@H]3NC(=O)[C@H](Cc4ccc(O)cc4)NC(=O)[C@@H](NC(=O)[C@@H](NC(=O)[C@H](C)N)[C@@H](C)O)CSSC[C@@H](C(=O)N[C@@H](CCCNC(=N)N)C(=O)O)NC(=O)[C@H](CSSC[C@H](NC(=O)[C@H](CCCNC(=N)N)NC(=O)CNC(=O)[C@H]([C@@H](C)O)NC(=O)[C@H](CCCNC(=N)N)NC3=O)C(=O)N[C@@H](C)C(=O)N[C@@H]([C@@H](C)O)C(=O)N[C@@H](CCCNC(=N)N)C(=O)N[C@@H](CCC(=O)O)C(=O)N[C@@H](CO)C(=O)N[C@@H](CC(C)C)C(=O)N[C@@H](CO)C(=O)NCC(=O)N[C@@H](C(C)C)C(=O)N2)NC(=O)[C@H](CC(C)C)NC(=O)[C@H](CCCNC(=N)N)NC(=O)[C@H](Cc2ccc(O)cc2)NC(=O)[C@H](CC(C)C)NC(=O)[C@H](CCCNC(=N)N)NC(=O)CNC(=O)[C@H](CO)NC1=O (H-ATCYCRTGRCATRESLSGVCEISGRLYRLCCR-OH; disulfide 3-31, 5-20, 10-30) | 6.6 | 3.3 (≈ 0.921 µM) | 3.4 | 1.9 (≈ 0.53 µM) | 210 |  | inactive | inactive |  |  | 220 | Active | Active | inactive | 120 |  | 
CC[C@H](C)[C@@H]1NC(=O)[C@H](CCC(=O)O)NC(=O)[C@@H]2CSSC[C@@H]3NC(=O)[C@H](Cc4ccc(O)cc4)NC(=O)[C@@H](NC(=O)[C@@H](NC(=O)[C@H](C)N)[C@@H](C)O)CSSC[C@@H](C(=O)N[C@@H](CCCNC(=N)N)C(=O)O)NC(=O)[C@H](CSSC[C@H](NC(=O)[C@H](CCCNC(=N)N)NC(=O)CNC(=O)[C@H]([C@@H](C)O)NC(=O)[C@H](CCCNC(=N)N)NC3=O)C(=O)N[C@@H](C)C(=O)N[C@@H]([C@@H](C)O)C(=O)N[C@@H](CCCNC(=N)N)C(=O)N[C@@H](CCC(=O)O)C(=O)N[C@@H](CO)C(=O)N[C@@H](CC(C)C)C(=O)N[C@@H](CO)C(=O)NCC(=O)N[C@@H](C(C)C)C(=O)N2)NC(=O)[C@H](CC(C)C)NC(=O)[C@H](CCCNC(=N)N)NC(=O)[C@H](Cc2ccc(O)cc2)NC(=O)[C@H](CC(C)C)NC(=O)[C@H](CCCNC(=N)N)NC(=O)[C@H](CCCNC(=N)N)NC(=O)[C@H](CO)NC1=O (H-ATCYCRTGRCATRESLSGVCEISRRLYRLCCR-OH; disulfide 3-31, 5-20, 10-30) | 5.8 | 1.6 (≈ 0.435 µM) | 3.1 | 1.5 (≈ 0.407 µM) |  |  |  |  |  |  |  |  |  |  |  |  | 
CC[C@H](C)[C@@H]1NC(=O)[C@H](CCCNC(=N)N)NC(=O)[C@@H]2CSSC[C@@H]3NC(=O)[C@H](Cc4ccc(O)cc4)NC(=O)[C@@H](NC(=O)[C@@H](NC(=O)[C@H](C)N)[C@@H](C)O)CSSC[C@@H](C(=O)N[C@@H](CCCNC(=N)N)C(=O)O)NC(=O)[C@H](CSSC[C@H](NC(=O)[C@H](CCCNC(=N)N)NC(=O)CNC(=O)[C@H]([C@@H](C)O)NC(=O)[C@H](CCCNC(=N)N)NC3=O)C(=O)N[C@@H](C)C(=O)N[C@@H]([C@@H](C)O)C(=O)N[C@@H](CCCNC(=N)N)C(=O)N[C@@H](CCC(=O)O)C(=O)N[C@@H](CO)C(=O)N[C@@H](CC(C)C)C(=O)N[C@@H](CO)C(=O)NCC(=O)N[C@@H](C(C)C)C(=O)N2)NC(=O)[C@H](CC(C)C)NC(=O)[C@H](CCCNC(=N)N)NC(=O)[C@H](Cc2ccc(O)cc2)NC(=O)[C@H](CC(C)C)NC(=O)[C@H](CCCNC(=N)N)NC(=O)CNC(=O)[C@H](CO)NC1=O (H-ATCYCRTGRCATRESLSGVCRISGRLYRLCCR-OH; disulfide 3-31, 5-20, 10-30) | 3.1 | 1.3 (≈ 0.36 µM) | 2.2 | 0.6 (≈ 0.166 µM) |  |  |  |  |  |  | 85 | Active |  |  | 33 | Active | 
CC[C@H](C)[C@H](NC(=O)CN)C(=O)NCC(=O)N[C@@H](C)C(=O)N[C@H](C(=O)N[C@@H](CC(C)C)C(=O)N[C@@H](CCCCN)C(=O)N[C@H](C(=O)N[C@@H](CC(C)C)C(=O)N[C@H](C(=O)N[C@H](C(=O)NCC(=O)N[C@@H](CC(C)C)C(=O)N1CCC[C@H]1C(=O)N[C@@H](C)C(=O)N[C@@H](CC(C)C)C(=O)N[C@H](C(=O)N[C@@H](CO)C(=O)N[C@@H](Cc1c[nH]c2ccccc12)C(=O)N[C@H](C(=O)N[C@@H](CCCCN)C(=O)N[C@@H](CCCNC(=N)N)C(=O)N[C@@H](CCCCN)C(=O)N[C@@H](CCCNC(=N)N)C(=O)N[C@@H](CCC(N)=O)C(=O)N[C@@H](CCC(N)=O)C(N)=O)[C@@H](C)CC)[C@@H](C)CC)[C@@H](C)O)[C@@H](C)O)C(C)C)C(C)C [MELITTIN] |  |  |  |  |  |  |  |  |  |  |  |  |  |  |  |  | Toxic
